Legend:
Type in all cases: in vivo
Setaria [1] = test: Pre-emergence test, Setaria; conditions: pre-emergence/greenhouse; 250 g of ai/ha; after three weeks
Experimental: (§1) [table] To produce a suitable preparation of active compound, 1 part by weight of active compound is mixed with the stated amount of solvent, the stated amount of emulsifier is added and the concentrate is diluted with water to the desired concentration. Seeds of the test plants are sown in normal soil. After about 24 hours, the soil is sprayed with the preparation of active compound such that the particular amounts of active compound desired are applied per unit area. The concentration of the spray liquor is chosen such that the particular amounts of active compound desired are applied in 1000 l of water/ha. After three weeks, the degree of damage to the plants is rated in % damage in comparison to the development of the untreated control. The figures denote: • 0%=no effect (like untreated control) • 100%=total destruction

Setaria [2] = test: Post-emergence test, Setaria; conditions: post-emergence/greenhouse; 250 g of ai/ha; after three weeks
Experimental: as §1, with “Test plants” for “Seeds”, “a height of 5-15 cm” for “the test plants”, “are” for “are sown in normal soil. After about 24 hours, the soil is”, “(=like” for “(like”

Echinochloa [3] = test: Post-emergence test, Echinochloa; conditions: post-emergence/greenhouse; 250 g of ai/ha; after three weeks
Experimental: as §1, with “Test plants” for “Seeds”, “a height of 5-15 cm” for “the test plants”, “are” for “are sown in normal soil. After about 24 hours, the soil is”, “(=like” for “(like”

Amaranthus [4] = test: Pre-emergence test, Amaranthus; conditions: pre-emergence/greenhouse; 250 g of ai/ha; after three weeks
Experimental: as §1

Echinochloa [5] = test: Pre-emergence test, Echinochloa; conditions: pre-emergence/greenhouse; 250 g of ai/ha; after three weeks
Experimental: as §1

Alopecurus [6] = test: Pre-emergence test, Alopecurus; conditions: pre-emergence/greenhouse; 250 g of ai/ha; after three weeks
Experimental: as §1

Tetranychus urticae = test: Tetranychus test (OP-resistant/dip treatment); conditions: 100 ppm active compound, bean plants dipped, OP-resistant
Experimental: [table] To produce a suitable preparation of active compound, 1 part by weight of active compound is mixed with the stated amounts of solvent and emulsifier, and the concentrate is diluted with emulsifier-containing water to the desired concentration. Bean plants (Phaseolus vulgaris) which are heavily infested by all stages of the greenhouse […] spider mite (Tetranychus urticae) are dipped into a preparation of active compound of the desired concentration. After the desired period of time, the activity in % is determined. 100% means that all spider mites have been killed; 0% means that none of the spider mites have been killed.

Amaranthus [7] = test: Post-emergence test, Amaranthus; conditions: post-emergence/greenhouse; 250 g of ai/ha; after three weeks
Experimental: as §1, with “Test plants” for “Seeds”, “a height of 5-15 cm” for “the test plants”, “are” for “are sown in normal soil. After about 24 hours, the soil is”, “(=like” for “(like”

Avena fatua [8] = test: Post-emergence test, Avena fatua; conditions: post-emergence/greenhouse; 250 g of ai/ha; after three weeks
Experimental: as §1, with “Test plants” for “Seeds”, “a height of 5-15 cm” for “the test plants”, “are” for “are sown in normal soil. After about 24 hours, the soil is”, “(=like” for “(like”

Spodoptera frugiperda = Spodoptera frugiperda test; conditions: 500 ppm active compound, cabbage leaves dipped
Experimental: [table] To produce a suitable preparation of active compound, 1 part by weight of active compound is mixed with the stated amounts of solvent and emulsifier, and the concentrate is diluted with emulsifier-containing water to the desired concentration. Cabbage leaves (Brassica oleracea) are treated by being dipped into the preparation of active compound of the desired concentration and are populated with caterpillars of the army worm (Spodoptera frugiperda) while leaves are still moist. After the desired period of time, the kill in % is determined. 100% means that all caterpillars have been killed; 0% means that none of the caterpillars have been killed.

Alopecurus [9] = test: Post-emergence test, Alopecurus; conditions: post-emergence/greenhouse; 250 g of ai/ha; after three weeks
Experimental: as §1, with “Test plants” for “Seeds”, “a height of 5-15 cm” for “the test plants”, “are” for “are sown in normal soil. After about 24 hours, the soil is”, “(=like” for “(like”

Avena fatua [10] = test: Pre-emergence test, Avena fatua; conditions: pre-emergence/greenhouse; 250 g of ai/ha; after three weeks
Experimental: as §1

Sinapis [11] = test: Pre-emergence test, Sinapis; conditions: pre-emergence/greenhouse; 250 g of ai/ha; after three weeks
Experimental: as §1

Sinapis [12] = test: Post-emergence test, Sinapis; conditions: post-emergence/greenhouse; 250 g of ai/ha; after three weeks
Experimental: as §1, with “Test plants” for “Seeds”, “a height of 5-15 cm” for “the test plants”, “are” for “are sown in normal soil. After about 24 hours, the soil is”, “(=like” for “(like”

Structure (SMILES): COC1CCC2(CC1)NC(=O)C(Cl)(c1c(C)cc(C)cc1Cl)C2=O (centres unmarked) [Ex. I-1-a-8]
- % damage, Setaria (Setaria [1]): 100%
- % damage, Setaria (Setaria [2]): 100%
- % damage, Echinochloa (Echinochloa [3]): 100%
- % damage, Amaranthus (Amaranthus [4]): 100%
- % damage, Echinochloa (Echinochloa [5]): 100%
- % damage, Alopecurus (Alopecurus [6]): 100%
- Kill rate in % after 7d (Tetranychus urticae): 100%
- % damage, Amaranthus (Amaranthus [7]): 90%
- % damage, Avena fatua (Avena fatua [8]): 90%
- Kill rate in % after 7d (Spodoptera frugiperda): 100%
- % damage, Alopecurus (Alopecurus [9]): 100%
- % damage, Avena fatua (Avena fatua [10]): 100%
- % damage, Sinapis (Sinapis [11]): 100%
- % damage, Sinapis (Sinapis [12]): 80%

— patent US8063096B2, “Spirocyclic 3-phenyl-3substituted-4-ketolactams and-lactones” (Bayer Cropscience AG, priority 2001, dated 2011)
